Results from patent US7011816B2, “Labeling targeting agents with gallium-68 and gallium-67” (Immunomedics, Inc., priority 2001, dated 2006).
*1 amine or outer side, *2 acyl side, *3 side chain or, on linkers, in order; H or OH if unused. Where a SMILES comes first, the peptide text is derived from it. Side-chain parts run from the residue outwards. [ ]: non-standard residue; d: D form. The star is where a group is joined. DOTA = O=C(O)CN1CCN(CC(=O)O)CCN(CC(=O)*)CCN(CC(=O)O)CC1; NH(2-(imidazol-4-yl)ethyl) = c1ncc(CCN*)[nH]1; Suc = O=C(CCC(=O)[*:2])[*:1]

Legend:
Set-up in all cases: species or system nude mice
[1] = system: GW39 human colon tumor xenografts; conditions: mouse, in vivo
Protocol: (§1) The bispecific antibody I-125-hMN-14×679-F(ab′)2 (anti-CEA×anti-HSG, radiolabeled with iodine-125 as a tracer radionuclide) was injected into nude mice bearing GW39 human colon tumor xenografts. Twenty-four hours later, the Ga-67-IMP 241 peptide, prepared according to the method described in Example # 4, was injected. At specified times post-injection, five animals per time-point were sacrificed and tissues collected and counted for both I-125 and Ga-67 radioactivity, using dual energy windows for each respective radionuclide. Additionally, biodistribution of Ga-67-IMP 241 given alone, without bsAb pretargeting is shown in Table 3 (four animals per group in this series). In each Table, the data is presented in terms of percent injected dose per gram of tissue (± standard deviation). Additionally, the biodistribution data for I-125-hMN-14×679-F(ab′)2 and Ga-67-IMP 241, from the same experiment, is reported in terms of tumor-to non-tumor ratio (T/NT) (Tables 4 & 5, for 1–125 and Ga-67, respectively).

in vivo = conditions: nude, mouse, total radioactivity
Protocol: as §1

[2] = system: GW39 human colon tumor xenografts; test: in vivo; conditions: mouse
Protocol: as §1

[3] = Tumor-to-tissue ratio Lg. Intestine
[4] = Tumor-to-tissue ratio Sm. Intestine

tissue to tissue ratio at 1 h (in vivo; Tumor-to-tissue ratio Blood): 1.7 ± 0.8 | tissue to tissue ratio at 2 h (in vivo; Tumor-to-tissue ratio Blood): 6.1 ± 5 | tissue to tissue ratio at 3 h (in vivo; Tumor-to-tissue ratio Blood): 8.5 ± 9.5 | tissue to tissue ratio at 4 h (in vivo; Tumor-to-tissue ratio Blood): 8.7 ± 4.6 | tissue to tissue ratio at 6 h (in vivo; Tumor-to-tissue ratio Blood): 12.1 ± 8 | tissue to tissue ratio at 1 h (in vivo; Tumor-to-tissue ratio Bone): 11.5 ± 11 | tissue to tissue ratio at 2 h (in vivo; Tumor-to-tissue ratio Bone): 24.6 ± 15.1 | tissue to tissue ratio at 3 h (in vivo; Tumor-to-tissue ratio Bone): 17.8 ± 13.7 | tissue to tissue ratio at 4 h (in vivo; Tumor-to-tissue ratio Bone): 18.3 ± 3.1 | tissue to tissue ratio at 6 h (in vivo; Tumor-to-tissue ratio Bone): 53 ± 41.7 | tissue to tissue ratio at 1 h (in vivo; Tumor-to-tissue ratio Kidney): 2.3 ± 1.6 | tissue to tissue ratio at 2 h (in vivo; Tumor-to-tissue ratio Kidney): 3.5 ± 2.2 | tissue to tissue ratio at 3 h (in vivo; Tumor-to-tissue ratio Kidney): 2.4 ± 1.8 | tissue to tissue ratio at 4 h (in vivo; Tumor-to-tissue ratio Kidney): 3.1 ± 1.1 | tissue to tissue ratio at 6 h (in vivo; Tumor-to-tissue ratio Kidney): 4.3 ± 2.7 | tissue to tissue ratio at 1 h (in vivo; [3]): 67.3 ± 44.1 | tissue to tissue ratio at 2 h (in vivo; [3]): 74.2 ± 55 | tissue to tissue ratio at 3 h (in vivo; [3]): 72.7 ± 89 | tissue to tissue ratio at 4 h (in vivo; [3]): 56.5 ± 21.7 | tissue to tissue ratio at 6 h (in vivo; [3]): 162 ± 270 | tissue to tissue ratio at 1 h (in vivo; Tumor-to-tissue ratio Liver): 8 ± 3.8 | tissue to tissue ratio at 2 h (in vivo; Tumor-to-tissue ratio Liver): 15.9 ± 8.9 | tissue to tissue ratio at 3 h (in vivo; Tumor-to-tissue ratio Liver): 13.1 ± 12 | tissue to tissue ratio at 4 h (in vivo; Tumor-to-tissue ratio Liver): 16.2 ± 8.6 | tissue to tissue ratio at 6 h (in vivo; Tumor-to-tissue ratio Liver): 16 ± 10.5 | tissue to tissue ratio at 1 h (in vivo; Tumor-to-tissue ratio Lungs): 4.5 ± 1.9 | tissue to tissue ratio at 2 h (in vivo; Tumor-to-tissue ratio Lungs): 13.1 ± 7.5 | tissue to tissue ratio at 3 h (in vivo; Tumor-to-tissue ratio Lungs): 11.4 ± 11.1 | tissue to tissue ratio at 4 h (in vivo; Tumor-to-tissue ratio Lungs): 13.5 ± 5.9 | tissue to tissue ratio at 6 h (in vivo; Tumor-to-tissue ratio Lungs): 20.2 ± 12.5 | tissue to tissue ratio at 1 h (in vivo; [4]): 18.6 ± 9.1 | tissue to tissue ratio at 2 h (in vivo; [4]): 27.7 ± 9.1 | tissue to tissue ratio at 3 h (in vivo; [4]): 35.5 ± 26 | tissue to tissue ratio at 4 h (in vivo; [4]): 22 ± 12.7 | tissue to tissue ratio at 6 h (in vivo; [4]): 47.2 ± 35.9 | tissue to tissue ratio at 1 h (in vivo; Tumor-to-tissue ratio Spleen): 10.7 ± 7.2 | tissue to tissue ratio at 2 h (in vivo; Tumor-to-tissue ratio Spleen): 26.6 ± 28.7 | tissue to tissue ratio at 3 h (in vivo; Tumor-to-tissue ratio Spleen): 16.3 ± 13.1 | tissue to tissue ratio at 4 h (in vivo; Tumor-to-tissue ratio Spleen): 26.1 ± 23.4 | tissue to tissue ratio at 6 h (in vivo; Tumor-to-tissue ratio Spleen): 17.4 ± 12.7 | tissue to tissue ratio at 1 h (in vivo; Tumor-to-tissue ratio Stomach): 36.7 ± 22.8 | tissue to tissue ratio at 2 h (in vivo; Tumor-to-tissue ratio Stomach): 52.8 ± 17.6 | tissue to tissue ratio at 3 h (in vivo; Tumor-to-tissue ratio Stomach): 73.6 ± 47.4 | tissue to tissue ratio at 4 h (in vivo; Tumor-to-tissue ratio Stomach): 56.9 ± 36 | tissue to tissue ratio at 6 h (in vivo; Tumor-to-tissue ratio Stomach): 112 ± 60.7 | Tumor-to-tissue ratio Blood [2]: above 6:1 | Tumor-to-tissue ratio Kidney [2]: ~3.5:1
Structure (SMILES): NC(=O)[C@H](CCCCNC(=O)CNC(=O)CCC(=O)NCCc1cnc[nH]1)NC(=O)[C@@H](Cc1ccc(O)cc1)NC(=O)[C@H](CCCCNC(=O)CNC(=O)CCC(=O)NCCc1cnc[nH]1)NC(=O)[C@H](Cc1ccccc1)NC(=O)CN1CCN(CC(=O)O)CCN(CC(=O)O)CCN(CC(=O)O)CC1 [Ga-67-IMP 241, metal not drawn] ({DOTA}-FK([Gly-Suc-NH(2-(imidazol-4-yl)ethyl)])[dY]K([Gly-Suc-NH(2-(imidazol-4-yl)ethyl)])-NH2)
Clearance when given alone [1]: essentially clears completely within the first hour post-injection
